Structures can show the parent of a compound that is named as a salt.
Experiments:
HT29 = experiment: CellTiterGlo cell viability assay, HT29; type: cell-based; details: Homo sapiens, HT-29, 72 h, HT29, 72 h; for EC50: Table 4 classes, read-out: Ab EC50; for inhibition at 198 µM: percentage inhibition at the highest concentration tested, read-out: Top Inhibit
Protocol: (§1) A subset of compounds of the invention were assayed for their cytotoxic activity in an array of different solid tumours and haematological malignancies using the following assay.
(§2) In vitro viability assay were performed to assess the effects of compounds on cell viability in selected cell lines over 72 h using the CellTiterGlo (CTG, Promega-G7573) assay. The tests were performed in duplicates with treatment of compounds at 9 points, 3.16 folds titration in 96 well plates over ˜72 h. The compound starting concentrations were 198 μM. Cell viability assay using CellTiterGlo in 96-well plate were performed. Compound treatment 72 h, standard growth conditions, duplicates. Compounds were dissolved to 40 mM with thawed […]. Compounds were serially diluted at 3.16 fold in thawed DMSO, and warmed to 37° C. before being dissolved in media (2 μL+200 μL). After compounds were dissolved in media, media containing compounds were warmed to 37° C. in incubator and then compounds in media were added to cell plates (50 μL+50 μL) in duplicates. The compounds' final concentrations were from 198 μM to 19.8 nM. All compound solubilities were checked and recorded again, then the plates were transferred to CO2 tissue culture incubator immediately and incubated for 3 days. DMSO final concentration is 0.5%. The parent nucleoside in each case was tested as a comparator, as was an exemplary ProTide. The drugs of the ProTide class that were tested were as follows:
(§3) The following cell lines were tested and are referred to in the Table 1 below:
(§4) In Tables 2, 3 and 4, ‘Ab EC50’ refers to the absolute EC50 and ‘Top inhibit’ refers to the percentage inhibition achieved at the highest concentration tested.

HL-60 = experiment: CellTiterGlo cell viability assay, HL-60; type: cell-based; details: Homo sapiens, HL-60, 72 h; for EC50: Table 4 classes, read-out: Ab EC50; for inhibition at 198 µM: percentage inhibition at the highest concentration tested, read-out: Top Inh
Protocol: as §1, §2, §3, §4

RPMI-8226 = experiment: CellTiterGlo cell viability assay, RPMI-8226; type: cell-based, Human; details: Homo sapiens, RPMI-8226, 72 h; for EC50: Table 4 classes, read-out: Ab EC50; for inhibition at 198 µM: percentage inhibition at the highest concentration tested, read-out: Top Inh
Protocol: as §1, §2, §3, §4

K562 = experiment: CellTiterGlo cell viability assay, K562; type: cell-based; details: Homo sapiens; for inhibition at 198 µM: K562, 72 h, percentage inhibition at the highest concentration tested, read-out: Top Inh; for EC50: K562, K 562, 72 h, Table 4 classes, read-out: Ab EC50
Protocol: as §1, §2, §3, §4

KG-1 = experiment: CellTiterGlo cell viability assay, KG-1; type: cell-based; details: Homo sapiens, KG-1, 72 h; for EC50: Table 4 classes, read-out: Ab EC50; for inhibition at 198 µM: percentage inhibition at the highest concentration tested, read-out: Top Inhibit
Protocol: as §1, §2, §3, §4

CCRF-CEM = experiment: CellTiterGlo cell viability assay, CCRF-CEM; type: cell-based; details: Homo sapiens, 72 h; for EC50: Table 4 classes, read-out: Ab EC50; for inhibition at 198 µM: percentage inhibition at the highest concentration tested, read-out: Top Inh
Protocol: as §1, §2, §3, §4

MCF-7 = experiment: CellTiterGlo cell viability assay, MCF-7; type: cell-based; details: Homo sapiens, MCF7, 72 h, MCF-7, 72 h; for inhibition at 198 µM: percentage inhibition at the highest concentration tested, read-out: Top Inhibit; for EC50: Table 4 classes, read-out: Ab EC50
Protocol: as §1, §2, §3, §4

MOLT-4 = experiment: CellTiterGlo cell viability assay, MOLT-4; type: cell-based; details: Homo sapiens, MOLT-4, 72 h; for inhibition at 198 µM: percentage inhibition at the highest concentration tested, read-out: Top Inh; for EC50: Table 4 classes, read-out: Ab EC50
Protocol: as §1, §2, §3, §4

RL = experiment: CellTiterGlo cell viability assay, RL; type: cell-based; details: Homo sapiens, 72 h; for inhibition at 198 µM: percentage inhibition at the highest concentration tested, read-out: Top Inh
Protocol: as §1, §2, §3, §4

HepG2 = experiment: CellTiterGlo cell viability assay, HepG2; type: cell-based; details: Homo sapiens, HepG2, 72 h; for EC50: Table 4 classes, read-out: Ab EC50; for inhibition at 198 µM: percentage inhibition at the highest concentration tested, read-out: Top Inhibit
Protocol: as §1, §2, §3, §4

OVCAR 3 = experiment: CellTiterGlo cell viability assay, OVCAR 3; type: cell-based; details: Homo sapiens; for inhibition at 198 µM: OVCAR-3, 72 h, percentage inhibition at the highest concentration tested, read-out: Top Inhibit; for EC50: OVCAR 3, 72 h, Table 4 classes, read-out: Ab EC50
Protocol: as §1, §2, §3, §4

| SMILES | EC50 (HT29) [nM] | inhibition at 198 µM (HT29) [%] | EC50 (HL-60) [nM] | inhibition at 198 µM (HL-60) [%] | EC50 (RPMI-8226) [nM] | inhibition at 198 µM (RPMI-8226) [%] | inhibition at 198 µM (K562) [%] | EC50 (K562) [nM] | EC50 (KG-1) [nM] | inhibition at 198 µM (KG-1) [%] | EC50 (CCRF-CEM) [nM] | inhibition at 198 µM (CCRF-CEM) [%] | inhibition at 198 µM (MCF-7) [%] | inhibition at 198 µM (MOLT-4) [%] | EC50 (MOLT-4) [nM] | inhibition at 198 µM (RL) [%] | EC50 (HepG2) [nM] | inhibition at 198 µM (HepG2) [%] | inhibition at 198 µM (OVCAR 3) [%] | EC50 (OVCAR 3) [nM] | further results |
| --- | --- | --- | --- | --- | --- | --- | --- | --- | --- | --- | --- | --- | --- | --- | --- | --- | --- | --- | --- | --- | --- |
| C[C@H](NP(=O)(Oc1ccccc1)OP(=O)(O)OC[C@H]1O[C@@H](n2cnc3c(N)nc(Cl)nc32)[C@H](F)C1O)C(=O)OCC(C)(C)C (stereo partly drawn) [Example 9, 2-Chloro-9-(2′-Deoxy-2′-fluoro-β-D-arabinofuranosyl)adenine-5′-O-[phenyl(neopentoxy-L-alaninyl)] Diphosphate Triethylammonium Salt] | 200 to 1000 | 70 | < 200 | 96 | > 10000 | 81 | 40 | > 10000 | < 200 | 92 | < 200 | 99 | 45 | 92 | < 200 | 53 | 200 to 1000 | 53 | 43 | > 10000 | EC50 (RL; Table 4 classes, read-out: Ab EC50): 200 to 1000 nM |
| CC(C)(NP(=O)(Oc1ccccc1)OP(=O)(O)OC[C@H]1O[C@@H](n2cnc3c(N)nc(Cl)nc32)[C@H](F)C1O)C(=O)OCc1ccccc1 (stereo partly drawn) [Example 10, 2-Chloro-9-(2′-Deoxy-2′-fluoro-β-D-arabinofuranosyl)adenine-5′-O-[phenyl(benzoxy-dimethylglycinyl)] Diphosphate Triethylammonium Salt] | 200 to 1000 | 70 | < 200 | 96 | > 10000 | 80 | 37 | > 10000 | < 200 | 92 | < 200 | 99 | 51 | 93 | < 200 | 48 | 1000 to 5000 | 55 | 42 | > 10000 | EC50 (MCF-7): > 10000 nM |
| CC(C)(NP(=O)(Oc1cccc2ccccc12)OP(=O)(O)OC[C@H]1O[C@@H](n2cnc3c(N)nc(Cl)nc32)[C@H](F)C1O)C(=O)OCc1ccccc1 (stereo partly drawn) [Example 11, 2-Chloro-9-(2′-Deoxy-2′-fluoro-β-D-arabinofuranosyl)adenine-5′-O-[1-naphthyl(benzoxy-dimethylglycinyl)] Diphosphate Triethylammonium Salt] | 200 to 1000 | 69 | < 200 | 96 | > 10000 | 81 | 50 | > 10000 | < 200 | 92 | < 200 | 99 | 57 | 91 | < 200 | 47 | 1000 to 5000 | 58 | 70 | > 10000 | EC50 (MCF-7): > 10000 nM |

Source: US11560400B2, “Salts of diphosphate phosphoramidate of nucleosides as anticancer compounds” (NuCana plc, priority 2017, dated 2023)
